Where a SMILES comes first, the peptide text is derived from it. Bridges are numbered along the chain shown (N, C = ends). Roman numbers before positions name the chains, in order. [ ]: non-standard residue; d: D form. The star is where a group is joined. DOTA = O=C(O)CN1CCN(CC(=O)O)CCN(CC(=O)*)CCN(CC(=O)O)CC1

The cell viability is the share of living cells, or the viability signal relative to a control.

Holding throughout (assay type): cell-based
For experiment [1], the system named is U87-CXCR4 + cells. Briefly: Cell membrane binding and internalisation assay. Here is the method: In the saturation binding assays, U87-CXCR4 + cells were seeded in 24-well plates and allowed to adhere. The night before the experiment, complete media was replaced with media containing 2% FBS. To determine the total binding, cells were treated with a mixture of each radiolabelled peptide (at final concentrations ranging from 0.1 to 1000 nM, corresponding to activity concentrations ranging from 0.005 to 50 MBq/mL) with 0.2% dimethyl sulfoxide (DMSO, vehicle). Non-specific binding (NSB) was verified by treating cells with a mixture of each radiolabelled peptide with 100 µM of AMD11070, a potent CXCR4 antagonist.
After 4 h of incubation at 37 °C and 5% CO2, the unbound fraction was collected in gamma counter tubes, and the cells were washed twice with PBS. The wash fractions were added to the same gamma counter tubes. Next, cells were lysed by incubation with 1 M NaOH for 30 min at room temperature (RT). After collecting the lysed cell fractions, two washes with 1 M NaOH were performed, and added to the same fractions, corresponding to the total bound fractions.
For the internalisation assay, 1 and 100 nM of the radiolabelled peptides were used. The membrane-bound fraction was separated from the internalised fraction by a 10 min incubation at RT with a stripping buffer of 50 mM glycine and 100 mM NaCl, pH 2.8. This was followed by lysis with 1 M NaOH as described above.
The activities of all collected fractions were measured in an automated gamma counter. Activity measurements were converted to % added activity (%AA) and normalised for cell counts. A standard curve, obtained by measuring the treatment solutions, was used to convert the activity concentration to moles.

For experiment [2], the system named is U87-CXCR4 + cells. Briefly: MTS cell viability assay. The note with it: for cell viability: % of vehicle, mean ± SD. Here is the method:
Cell viability assays were performed using increasing activity concentrations of the radiolabelled peptides (1 to 20 MBq/mL), incubated with U87-CXC4 + cells for four hours at 37 °C, 5% CO2. After the incubation period, cells were washed twice with PBS and replenished with complete media. After five and seven days of treatment, the cell media was removed and MTS (3-(4,5-dimethylthiazol-2-yl)-5-(3-carboxymethoxyphenyl)-2-(4-sulfophenyl)-2 H-tetrazolium) reagent added, prepared according to manufacturer’s instructions (CellTiter 96® AQueous One Solution Cell Proliferation Assay, Promega, Wisconsin, United States). To determine the effect of the radiation originating from unbound radiolabelled peptides, cells were treated with equivalent activity concentrations of [^177Lu]Lu-DTPA. Triton X-100 (0.1%) was used as a positive control. Vehicle includes the NaOAc radiolabeling buffer at the concentration used for the 20 MBq/mL peptide solutions. The cells were incubated for 0.5–1 h with the MTS reagent at 37 °C, 5% CO2. Absorbance was measured at 490 nm using a BioTek Synergy H1 plate reader (Agilent Technologies, Mechelen, Belgium). Cell viability was normalised to the vehicle and calculated as percentage of cell viability.
On the technique in general: Tetrazolium dyes change colour on reduction, which living cells bring about.

Experiment [3] relates to U87-CXCR4 + cells. Briefly: DNA damage immunofluorescence (yH2AX / 53BP1). Here is the method: DNA damage in U87-CXCR4 + cells was detected by immunofluorescent staining of the DNA damage and repair proteins, phospho-H2A histone family member X (yH2Ax) and p53-binding protein 1 (53BP1). Briefly, cells were seeded in 96-well plates and left overnight to adhere at 37 °C, 5% CO2. Next, cells were treated with different activity concentrations of [^177Lu]Lu-DOTA-POL3026 or [^177Lu]Lu-DTPA, ranging from 1 to 20 MBq/mL. After four hours of incubation, cells were washed twice with PBS, replenished with fresh media, and left at 37 °C, 5% CO2 until the fixation time point. For fixation, cells were washed with PBS, and fixed by incubating them with 4% paraformaldehyde (PFA) for 15 min at RT. This was done 0, 24 and 120 h after treatment. Cells were washed twice with PBS and stored in PBS at 4 °C until the residual radioactivity in the plate decayed. The vehicle includes the NaOAc radiolabeling buffer at the concentration used for the 20 MBq/mL peptide solutions.
After decay storage, yH2Ax/53BP1 double staining was performed using the following protocol. First, cells were washed once with PBS-glycine and then permeabilised by washing them for 10 min with PBS-Triton X-100. […]
Cells were imaged at 40x magnification using a BioTek Cytation 5 (Agilent Technologies, Mechelen, Belgium), where 4 fields were imaged per well, ensuring that at least a hundred cells were counted per condition. […]

Experiment [4] deals with U87-CXCR4 + cells. Briefly: Apoptosis live cell imaging (Annexin V, Caspase 3/7; IncuCyte). As to conditions: day 5, 4 h, normalised to confluence and vehicle, N = 2. Here is the method:
Apoptosis was measured using the IncuCyte® Zoom system (Essen Bioscience, Hertfordshire, UK).
Briefly, cells were seeded in 96-well plates, and left to attach overnight at 37 °C, 5% CO2. Next, cells were treated with different activity concentrations of [^177Lu]Lu-DOTA-POL3026 or [^177Lu]Lu-DTPA, ranging from 1 to 20 MBq/mL. After four hours of incubation at 37 °C and 5% CO2, cells were washed twice with PBS. The Sartorius™ IncuCyte® dyes Caspase 3/7 green reagent and Annexin V red reagent were added at 1/2000 and 1/200 dilutions, respectively. Images were analysed using the IncuCyte® Zoom software. The average values of Green Calibrated Unit GCU x µm² (for Caspase 3/7) and Red Calibrated Units RCU x µm² (for Annexin V) signal were normalised to cell confluence percentages, five and seven days after treatment. Vehicle includes the NaOAc radiolabeling buffer at the concentration used for the 20 MBq/mL peptide solutions.

For `CC(C)C[C@@H](N)C(=O)NCC(=O)N[C@H](C)C(=O)N[C@H](CO)C(=O)N[C@H](Cc1c[nH]c2ccccc12)C(=O)N[C@H](Cc1c[nH]cn1)C(=O)N[C@H](CCCNC(=N)N)C(=O)N1CCC[C@@H]1C(=O)N[C@H](CC(=O)O)C(=O)N[C@H](CCCCNC(=O)CN1CCN(CC(=O)O)CCN(CC(=O)O)CCN(CC(=O)O)CC1)C(=O)NCCCC[C@@H](NC(=O)[C@H]1CCCN1C(=O)[C@@H](CC(C)C)NC(=O)[C@H]1CCCN1C(=O)[C@@H](CCCNC(=N)N)NC(=O)[C@@H](CCCCN)NC(=O)[C@@H](CCC(N)=O)NC(=O)[C@@H](Cc1ccc(O)cc1)NC(=O)CNC(=O)[C@@H](CC(C)C)NC(=O)[C@@H](CS)NC(=O)[C@@H](CS)NC(=O)[C@@H](CCCCN)NC(=O)[C@@H](CC(=O)O)NC(=O)[C@H]1CCCN1C(=O)[C@@H](CCCNC(=N)N)NC(=O)[C@@H](Cc1c[nH]cn1)NC(=O)[C@@H](Cc1c[nH]c2ccccc12)NC(=O)[C@@H](CO)NC(=O)[C@@H](C)NC(=O)CNC(=O)[C@H](N)CC(C)C)C(N)=O` [[^177Lu]Lu-DOTA-DV1-K-DV3, metal not drawn] (I: H-[dL]G[dA][dS][dW][dH][dR][dP][dD][dK][dC][dC][dL]G[dY][dQ][dK][dR][dP][dL][dP][dK]-NH2 / II: H-[dL]G[dA][dS][dW][dH][dR][dP][dD][dK](DOTA); amide I:22-II:C; N-terminus and C-terminus assumed), the “added activity bound to the cell membrane” value in the experiment on U87-CXCR4 + cells [1] (1 nM, 4 h, 37 °C, glycine stripping buffer pH 2.8, mean ± SD, N = 2) was “less than 1 %AA”. In addition, the added activity internalised with U87-CXCR4 + cells [1] (1 nM, 4 h, 37 °C, mean ± SD, N = 2) is reported as 0.2 ± 0.02 %AA. For the same molecule, in the experiment with U87-CXCR4 + cells [1] (1 nM, stated after the internalised fractions), the “reduction of binding in presence of 100 µM AMD11070 (specific binding)” value is recorded as “negligible”. Moreover, in the experiment with U87-CXCR4 + cells [1] (incubation concentration 100 nM), the “change of uptake (%AA) at 100 nM compared with 1 nM” value is listed as “did not significantly increase”.
For the molecule `O=C([O-])CN(CCN(CC(=O)[O-])CC(=O)[O-])CCN(CC(=O)[O-])CC(=O)[O-].[177Lu+3]` [[^177Lu]Lu-DTPA], the cell viability worked out at 90.9 ± 7.8% in the experiment with U87-CXCR4 + cells [2] (1 MBq/mL, day not stated in the sentence (follows the day 7 statement)) and 50.2 ± 10.4% in the experiment on U87-CXCR4 + cells [2] (day 5, 20 MBq/mL, 4 h incubation, N = 3–4). For the same molecule, in the experiment with U87-CXCR4 + cells [2] (day 7, 2 to 20 MBq/mL), the “effect on cell viability” value is “statistically-significant reduction”. The “increase of yH2AX” value in the experiment on U87-CXCR4 + cells [3] (any of the activity concentrations (1–20 MBq/mL)) was “did not result in an increase”. Also, the “increase in 53BP1” value in the experiment on U87-CXCR4 + cells [3] (any timepoint (0 h, 1 day, 5 days) after treatment) is “No statistically-significant increase”. The “Annexin V signal” value with U87-CXCR4 + cells [4] (1 MBq/mL) worked out at 1.4 ± 0.8 times the vehicle; in the experiment with U87-CXCR4 + cells [4] (10 MBq/mL), 3.3 ± 3.3 times the vehicle.

The values above are taken from paper PMC11250742, “Preclinical evaluation of CXCR4 peptides for targeted radionuclide therapy in glioblastoma” (EJNMMI Radiopharmacy and Chemistry, 2024).
